In PubChem BioAssay AID1645848:
Converted amounts (≈) assume the structure as drawn.

Conditions: buffer; pH 7.4; 6.0 h; 150.0 µM

| solubility kinetic | Compound |
| --- | --- |
| 65.1 µg/mL (≈ 150 µM) | O=C(c1ccc(-c2ncc3cnc(-c4ccccc4)cn23)cc1)N1CCS(=O)(=O)CC1 |
| 7.21 µg/mL (≈ 16.2 µM) | Cc1ccc(C(=O)Nc2nc(-c3ccccn3)cs2)cc1S(=O)(=O)N1CCOCC1 |
| < 1 µg/mL | O=C(Nc1cccc(S(=O)(=O)C(F)(F)F)c1)c1ccccc1NC(=O)c1ccccc1OCC(F)(F)F |
| 8.35 µg/mL (≈ 29.5 µM) | CCN(CC)CCOc1ccc(Cc2ccccc2)cc1 |
| < 1 µg/mL | CCn1ncc(NC(=O)Cn2ncc3cc(-c4cccc(OC)c4)ccc32)n1 |
| < 1 µg/mL | c1ccc2[nH]c(Nc3nc(-c4ccncc4)nc4ccccc34)nc2c1 |
| < 1 µg/mL | Cc1ccc(-c2nc3ccccc3o2)cc1NC(=O)COc1ccccc1 |
| 1.11 µg/mL (≈ 2.56 µM) | O=C(c1cnn(-c2cccc(F)c2)c1-n1cccc1)N1CCN(c2ccccc2F)CC1 |
| 7.47 µg/mL (≈ 20.5 µM) | Cc1c(-c2cccc(NC(=O)c3ccc(F)c(F)c3)c2)nc2ncccn12 |
| < 1 µg/mL | CC1=C(C(=O)Nc2ccccc2)C(c2ccccc2Br)N=C(Nc2nc3ccccc3o2)N1 (centres undefined) |
| 7.61 µg/mL (≈ 22.5 µM) | COC(=O)c1ccccc1C(=O)Nc1nc(-c2ccccc2)cs1 |
| 42.8 µg/mL (≈ 127 µM) | c1ccc(Nc2cc3c(cn2)CN(Cc2cccs2)CCN3)cc1 |
| 2.35 µg/mL (≈ 4.74 µM) | COc1ccc(-c2nc3ccccc3c(=O)n2Cc2ccco2)cc1COc1ccc(NC(C)=O)cc1 |
| < 1 µg/mL | O=C(NCCc1ccc(OCC(F)(F)F)c(OCC(F)(F)F)c1)c1cc2sccc2n1Cc1ccccc1 |
| 6.07 µg/mL (≈ 13 µM) | COc1cccc(CNc2ccc(S(=O)(=O)Nc3ncc(-c4ccccc4)s3)cc2)c1O |
| > 55 µg/mL | O=C(Cc1ccccc1)Nc1ccc(S(=O)(=O)Nc2nccs2)cc1 |
| > 77 µg/mL | O=C(NCCCn1ccnc1)c1nc(-c2ccccc2)cc2[nH]ccc12 |

| solubility kinetic | Compound |
| --- | --- |
| 14.2 µg/mL (≈ 37.6 µM) | COC(=O)CNC(=O)c1nc(-c2ccc(Cl)cc2Cl)c2cnccn12 |
| < 1 µg/mL | O=C(Nc1ccc(Oc2ccnc3[nH]ccc23)c(F)c1)c1cccn(-c2ccc(F)cc2)c1=O |
| 9.06 µg/mL (≈ 28.3 µM) | CC1=C(C(=O)Nc2ccccc2)C(c2ccc[nH]2)n2ncnc2N1 (centres undefined) |
| < 1 µg/mL | COc1ccc(Cn2c(CCC(=O)Nc3cc(C)cc(C)c3)nc3cccnc32)cc1 |
| < 1 µg/mL | O=C(Nc1nc(-c2ccccc2)cs1)c1ccncc1NS(=O)(=O)c1ccc(F)cc1Cl |
| < 1 µg/mL | CCN(c1ccccc1)S(=O)(=O)c1cc(C(=O)Nc2ccc(Br)cc2)ccc1F |
| 27.3 µg/mL (≈ 59 µM) | CNCc1ccc(-c2cc(-c3nc(-c4ccc(S(=O)(=O)C(C)C)cc4)cnc3N)on2)cc1 |
| > 61 µg/mL | CC(=O)c1c(C)[nH]c(C(=O)Nc2cccc([S+](=O)([O-])Nc3cccnc3)c2)c1C |
| 16.2 µg/mL (≈ 68.3 µM) | c1ccc(Nc2cc(-c3ccoc3)ncn2)cc1 |
| < 1 µg/mL | COc1ccc(OC)c(C(=O)Nc2nc(-c3ccccc3)cs2)c1 |
| < 1 µg/mL | Cc1nn2c(c1-c1ccccc1-c1ccccc1)N(Cc1ccc(O)cc1)CCC2 |
| < 1 µg/mL | Fc1cc(Nc2nc(-c3ccncc3)nc3ccccc23)ccc1-c1ccc2[nH]ncc2c1 |
| 6.96 µg/mL (≈ 15.1 µM) | N#Cc1ccc(S(=O)(=O)Nc2cnccc2C(=O)Nc2nc(-c3ccccc3)cs2)cc1 |
| < 1 µg/mL | CCCN1C(CC(C)C)=NS(=O)(=O)c2cc(NC(=O)c3ccco3)ccc21 |
| 20 µg/mL (≈ 42.4 µM) | O=C(Nc1nc(-c2ccccc2)cs1)c1ccncc1NS(=O)(=O)c1ccccc1Cl |
| < 1 µg/mL | Fc1ccc(-c2nc(-c3ccncc3)nc3ccccc23)cc1F |
| 1.08 µg/mL (≈ 2.91 µM) | CCCCc1ccc(NC(=O)c2ccc3c(c2)N(S(C)(=O)=O)CC3)cc1 |

More lines, now with the values behind:

| Compound | solubility kinetic |
| --- | --- |
| CCOC(=O)c1c(NC(=O)CN2CCCCC2)sc2c1CCN(C(=O)OCC)C2 | 27.6 µg/mL (≈ 65.2 µM) |
| NC(=O)c1ccc(-c2nc3c([nH]2)CN(C(=O)CN2CCOCC2)CC3)cc1 | > 55 µg/mL |
| COc1cc(-c2cn(C)c(=O)c3cnccc23)c(OC)cc1CN(C)C | > 52 µg/mL |
| CC(C)(O)Cn1c(NC(=O)c2ccc(-c3cn[nH]c3)s2)nc2cc(CN3CCOCC3)ccc21 | 47 µg/mL (≈ 97.8 µM) |
| COc1ccc(NC2=C(c3ccc(C(F)(F)F)cc3)C(=O)c3ccccc32)cc1 | 1.04 µg/mL (≈ 2.64 µM) |
| Cc1cc(-c2nnc3n2CCCCC3)c(C)n1-c1ccncc1 | 36 µg/mL (≈ 117 µM) |
| CC(=O)c1ccc(N[S+](=O)([O-])c2cccc(NC(=O)c3[nH]c(C)c(C(C)=O)c3C)c2)cc1 | 21.3 µg/mL (≈ 47 µM) |
| CCOC(=O)N1CCN(Cc2nc3cc(NC(=O)c4ccc(OC)cc4)ccc3n2C(C)C)CC1 | 14.7 µg/mL (≈ 30.7 µM) |
| CCOC(=O)C1CCN(C(=O)C2(NC(=O)Nc3ccccc3Cl)CCC2)CC1 | 43.2 µg/mL (≈ 106 µM) |
| C/C(=N\NC(N)=S)C1=CCC2C3CC[C@H]4CC(O)CC[C@]4(C)C3CC[C@]12C (some centres undefined) | < 1 µg/mL |
| Cc1c(Cl)cccc1-n1ncc(C(=O)Nc2ccc(Br)cc2F)c1C1CCNCC1 | > 72 µg/mL |
| CC(C)NC(=O)N1C[C@@H]2C[C@H](C1)c1ccc(-c3cccc(C(F)(F)F)c3)c(=O)n1C2 | > 93 µg/mL |
| CC(=O)c1ccc(N2CCN(S(=O)(=O)c3ccc4[nH]c(=O)[nH]c4c3)CC2)cc1 | 1.19 µg/mL (≈ 2.97 µM) |
| Cc1nc2sccn2c(=O)c1S(=O)(=O)Nc1ccc(N2CCN(S(C)(=O)=O)CC2)cc1 | 6.85 µg/mL (≈ 14.2 µM) |
| COc1ccc(C[C@@H]2C(=O)N[C@H](C)C(=O)N(C)[C@@H]3C(=O)N(C)[C@@H](Cc4ccc(O)c(c4)Oc4ccc(cc4)[C@H]3O)C(=O)N[C@@H](C)C(=O)N[C@H](C)C(=O)N2C)cc1 | 96.4 µg/mL (≈ 125 µM) |
| COCCNCc1ccc(-c2cc3nccc(Oc4ccc(NC(=S)NC(=O)Cc5ccc(F)cc5)cc4F)c3s2)nc1 | < 1 µg/mL |
| O=S(=O)(Nc1nccs1)c1ccc(NCc2cc(F)ccc2O)cc1 | > 56 µg/mL |
| NC1CCC(Nc2nc(Nc3ccc(C(=O)N4CCCCC4)cc3)c3ncn(-c4cccc(F)c4)c3n2)CC1 (centres undefined) | 57.5 µg/mL (≈ 109 µM) |

| Compound | solubility kinetic |
| --- | --- |
| Fc1ccc(CN2CCOC[C@H]2c2ncc(-c3ccc(Cl)s3)[nH]2)cc1 | 5.47 µg/mL (≈ 14.5 µM) |
| CCN(CC)CCOc1ccc2c(=O)c3ccc(Cl)cc3n(CCN(CC)CC)c2c1 | > 66 µg/mL |
| CC(=O)c1c(C)[nH]c(C(=O)Nc2cccc(S(=O)(=O)Nc3cccc(C#N)c3)c2)c1C | 21 µg/mL (≈ 48.2 µM) |
| C=Cc1ccc(Cn2c(C(=O)O)c(CNC3CCCCC3)c3ccc(OC)cc32)cc1 | < 1 µg/mL |
| COc1ccc(NC(=O)CCCc2nnc3n(CCC(C)C)c(=O)c4sccc4n23)cc1Cl | < 1 µg/mL |
| O=C(NCC1CCOCC1)C1CC(=O)N(c2n[nH]c3cc(Br)ccc23)C1 (centres undefined) | 25.3 µg/mL (≈ 60.1 µM) |
| CC(C(O)c1ccc(O)cc1)N1CCC(Cc2ccccc2)CC1 (centres undefined) | > 48 µg/mL |
| Nc1nc2c(s1)C(c1ccc(Br)cc1)CC(=O)N2 (centres undefined) | 6.66 µg/mL (≈ 20.6 µM) |
| Cc1cc(-c2ccc(C)c(S(=O)(=O)NCC3CCN(Cc4ccc(F)cc4)CC3)c2)on1 | 40.5 µg/mL (≈ 88.5 µM) |
| Fc1ccc(N2CCCN(CC3[C@H]4CNC[C@@H]34)CC2)cc1 (some centres undefined) | > 43 µg/mL |
| CCN1CCCC1CNC(=O)c1cc(S(=O)(=O)CC)c(N)cc1OC (centres undefined) | 36.2 µg/mL (≈ 98.1 µM) |
| O=C(Nc1ncnc2sc3c(c12)CCCCC3)c1ccco1 | 1.72 µg/mL (≈ 5.49 µM) |
| Cc1cc(F)ccc1-c1nc(NCCN=C(N)NC#N)nc2c1ccc(=O)n2-c1c(F)cccc1F | 39.5 µg/mL (≈ 80.2 µM) |
| Cc1onc(-c2ccc(F)cc2)c1COc1ccc(C(=O)N2CCS(=O)(=O)CC2)cn1 | > 66 µg/mL |
| Cc1cccc(-n2cnc3cc(C(=O)N4CCCCCC4)ccc32)c1 | 41.2 µg/mL (≈ 124 µM) |
| CC(=O)N1CCc2cc(S(=O)(=O)NCCC3=CCCCC3)ccc21 | 4.37 µg/mL (≈ 12.6 µM) |
| COc1cccc(-c2csc(N3CCC(C(N)=O)CC3)n2)c1 | > 47 µg/mL |
